The test system of test [1] is patient with chronic bronchitis with V/Q-mismatch. The test is described as follows: Inhalation of VIP by patient No. 4: chronic bronchitis with V/Q-mismatch, no bronchial obstruction. The class given is in vivo, human.
The subject of test [2] is arthritis in an experimental model. Conditions: treatment with VIP; cited from earlier work.
For test [3], the system named is pulmonary vascular system. Conditions: in vivo; cited from earlier work.
The next test concerns the target T1, Type I binding sites (Homo sapiens, UniProt P41586).
T1 sequence (P41586 21-468): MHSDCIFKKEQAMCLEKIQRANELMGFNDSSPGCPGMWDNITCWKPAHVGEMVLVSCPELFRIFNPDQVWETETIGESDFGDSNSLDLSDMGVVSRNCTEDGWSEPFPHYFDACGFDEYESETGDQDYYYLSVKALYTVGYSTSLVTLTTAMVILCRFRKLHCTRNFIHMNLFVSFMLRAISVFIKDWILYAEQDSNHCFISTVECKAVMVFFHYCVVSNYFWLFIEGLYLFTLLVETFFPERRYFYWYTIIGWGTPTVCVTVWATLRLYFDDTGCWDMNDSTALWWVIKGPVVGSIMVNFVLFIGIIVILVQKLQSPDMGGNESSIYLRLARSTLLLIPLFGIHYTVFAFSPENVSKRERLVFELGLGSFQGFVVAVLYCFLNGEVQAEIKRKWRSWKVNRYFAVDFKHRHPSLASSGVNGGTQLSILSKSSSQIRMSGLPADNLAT
The settings on record: cited from earlier work.

Setting [4] is: patient No. 4, after 1 and 2 days of inhalation.

On to “His-Ser-Asp-Ala-Val-Phe-Thr-Asp-Asn-Tyr-Thr-Arg-Leu-Arg-Lys-Gln-Met-Ala-Val-Lys-Lys-Tyr-Leu-Asn-Ser-Ile-Leu-Asn [VIP]”, for which, in test [1] (setting [4]), the “pulmonary gas exchange in lung function analysis” value is recorded as “completely normal pulmonary gas exchange” and the “severe decrease of paO2 caused by V/Q-mismatch” value is given as “significantly ameliorated”. In test [1] (patient No. 4, after inhalation of VIP), the V/Q-mismatch result is “totally removed”. Also, in test [2], the “incidence and severity of arthritis” value was “reduce significantly”; the “joint swelling and destruction of cartilage and bone” value is “completely abrogating”. The “resistance in the pulmonary vascular system” value in test [3] is recorded as “decrease the resistance”. In the test with Type I binding sites, the “affinity for type I binding sites” value was “much lower affinity”.
